The record followed here is US5726325A, “Tricyclic compounds” (Kyowa Hakko Kogyo Co., Ltd., priority 1995, dated 1998).

For data set [1], the system named is detrusor muscle. The data set can be described thus: Test Example 2: relaxation of guinea pig bladder strips, rhythmical contraction induced by 15 mM KCl. It counts as cell-based, guinea pig (male albino Hartley). The following applies: Cavia porcellus, concentration decreasing detrusor contraction by 50%. In a few lines: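 Male Hartley guinea pig detrusor strips, mucosa removed, in Krebs-Henseleit buffer at 37 °C, pH about 7.4, 5% CO2/95% O2, 1 g resting tension. Rhythmic contraction induced with 15 mM KCl; compound added cumulatively in half-log steps, 30 min each; […].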

The nature of data set [2]: Test Example 3: arterial blood pressure in anesthetized rats, intravenous. Format: in vivo, rat (female SD strain). The following applies: 1 mg/kg i.v. The text has this: (§1) Female SD strain rats (120-180 g) were used as test animals. Each animal was anesthetized by subcutaneous administration of 1 g/kg urethane. A catheter was inserted into the trachea to secure respiration. A polyethylene cannula (PE50) was inserted into the bladder from the entrance of the urethra and the urethra was ligated at the base. A catheter for blood pressure measurement was inserted into the right carotid artery, and a cannula for drug administration was inserted into the right jugular vein. The arterial catheter and the vesical catheter were connected to pressure transducers to measure the blood pressure and the intravesical pressure. After the bladder was stabilized over about 15 minutes, physiological saline was injected into the bladder at a volume of 0.2-0.7 ml to induce the rhythmical contraction almost once a minute. After the contraction of the bladder started, the contraction pattern was stabilized for 30-45 minutes, followed by intravenous administration of a test compound.
By this examination method, the effect of the test compounds on both blood pressure and vesical contraction can be evaluated. The blood pressure was measured 5, 15, and 30 minutes after the test compound was injected into the vein. Micturition contraction was induced by injecting physiological saline into the bladder. The change of average contraction interval (time between contractions) over 20 minutes was expressed as the relative value based on the pre-administration value which was regarded as 100.

Data set [3] relates to bladder. The data set can be described thus: Test Example 3: vesical contraction interval in anesthetized rats, intravenous. It counts as in vivo, rat (female SD strain). As to conditions: 1 mg/kg i.v., average over 20 minutes, relative to pre-administration value.
Text: as §1, with “After the contraction of the bladder started, the contraction pattern was stabilized for 30-45 minutes, followed by intravenous administration of a test compound.” left out
By this examination method, the effect of the test compounds on both blood pressure and vesical contraction can be evaluated. The blood pressure was measured 5, 15, and 30 minutes after the test compound was injected into the vein. […] The change of average contraction interval (time between contractions) over 20 minutes was expressed as the relative value based on the pre-administration value which was regarded as 100.

The subject of data set [4] is bladder. The experiment in a line: Test Example 4: micturition contraction interval in rats under partial restraint, oral. Format: in vivo, rat (male SD strain). The following applies: Rattus norvegicus, 3 mg/kg oral, pre-administration = 100. The text has this: As a control compound, cromakalim was used.
Data set [5] relates to detrusor muscle. The data set can be described thus: Test Example 1: relaxation of guinea pig bladder strips contracted with 50 mM KCl. It counts as cell-based, guinea pig (male albino Hartley). As to conditions: Cavia porcellus; contraction induced by 50 mM KCl; concentration decreasing detrusor contraction by 50%. Summed up: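 Mucosa-free detrusor strips from male Hartley guinea pigs were held at 1 g in Krebs-Henseleit, 37°C, 5% CO2/95% O2, pH about 7.4, and contracted with 50 mM KCl. Compound was added cumulatively in half-log steps, 30 min per concentration; IC50 is the concentration giving 50% relaxation of KCl tension.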

With `CC(O)(C(=O)Nc1cccc2c1C(=O)c1sccc1CO2)C(F)(F)F` (centres unmarked) [Compound 7, 9-(3,3,3-Trifluoro-2-hydroxy-2-methylpropanoylamino)-4,10-dihydrothieno[3,2-c][1]benzoxepin-10-one], the IC50 (in general, the concentration that gives 50% inhibition) in the data set with detrusor muscle [1] came out at 2100 nM; with detrusor muscle [5], 2400 nM. In addition, the “Change of average arterial blood pressure” value in data set [2] (5 min) was -4%; in data set [2] (15 min) it was “+1%”; in data set [2] (30 min), “+4%”. In addition, in the data set with bladder [3], the “Change of contraction interval” value is listed as “+186%”. In addition, the response vs control in vivo at 3 mg/kg is 132% with bladder [4] (1 hr); 141% in the data set with bladder [4] (2 hr); 149% with bladder [4] (3 hr); 154% with bladder [4] (4 hr); 146% in the data set with bladder [4] (5 hr).
